Test results from US20260356856A1, “KRAS G12S AND G12C INHIBITORS” (MIRATI THERAPEUTICS, INC., priority 2023, published 2026).

What was measured:
Experiment in all cases: KRas binding assay, TR-FRET displacement of Cy5 labelled tracer
Details in all cases: 60-minute incubation at room temperature, 1% DMSO, pH 7.5
KRas G12C = target: T1, KRas G12C (Homo sapiens, UniProt P01116, G12C)
T1 construct: Biotinylated KRas (corresponding to amino acids 1-169, produced at Accelegan Inc.); biotin (biotinylated); purchased Accelegan Inc
T1 sequence (P01116 1-169 isoform P01116-2 G12C): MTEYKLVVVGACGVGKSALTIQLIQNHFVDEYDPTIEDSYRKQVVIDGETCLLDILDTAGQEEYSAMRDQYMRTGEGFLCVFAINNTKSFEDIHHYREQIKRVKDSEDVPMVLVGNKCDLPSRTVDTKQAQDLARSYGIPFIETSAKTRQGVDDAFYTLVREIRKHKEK
Method: (§1) This Example illustrates that exemplary compounds of the present invention bind to KRas and are capable of displacing a labeled tracer ligand occupying the KRas binding site. KRas^WT, KRas^G12A, KRas^G12C, KRas^G12D, KRas^G12R, KRas^G12S, KRas^G12V, KRas^G13D, or KRas^Q61H was used in the assay.
(§2) The ability of a compound to bind to KRas was measured using a TR-FRET displacement assay. Biotinylated KRas (corresponding to amino acids 1-169, produced at Accelegan Inc.) was incubated with custom made Cy5 labelled tracer, terbium streptavidin (Cisbio Inc.) and compound (1% DMSO final) in buffer (50 mM HEPES, pH 7.5, 5 mM MgCl2, 0.005% Tween-20 and 1 mM DTT). After a 60-minute incubation at room temperature, the reaction was measured using a BMG LABTECH CLARIO star Plus via TR-FRET. […] The POC values were fit to a 4-parameter IC50 equation and the IC50 value reported.

KRas WT = target: T2, KRas WT (Homo sapiens, UniProt P01116)
T2 construct: Biotinylated KRas (corresponding to amino acids 1-169, produced at Accelegan Inc.); biotin (biotinylated); purchased Accelegan Inc
T2 sequence (P01116 1-169 isoform P01116-2): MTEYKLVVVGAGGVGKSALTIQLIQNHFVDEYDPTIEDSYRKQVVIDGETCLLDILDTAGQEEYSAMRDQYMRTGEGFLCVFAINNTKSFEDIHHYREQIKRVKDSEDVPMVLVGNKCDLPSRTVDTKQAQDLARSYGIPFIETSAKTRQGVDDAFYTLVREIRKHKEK
Method: as §1, §2

KRas G12S = target: T3, KRas G12S (Homo sapiens, UniProt P01116, G12S)
T3 construct: Biotinylated KRas (corresponding to amino acids 1-169, produced at Accelegan Inc.); biotin (biotinylated); purchased Accelegan Inc
T3 sequence (P01116 1-169 isoform P01116-2 G12S): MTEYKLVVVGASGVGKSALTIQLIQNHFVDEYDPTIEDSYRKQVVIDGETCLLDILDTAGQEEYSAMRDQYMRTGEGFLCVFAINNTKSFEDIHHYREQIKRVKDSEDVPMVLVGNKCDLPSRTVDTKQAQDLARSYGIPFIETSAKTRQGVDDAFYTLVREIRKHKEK
Method: as §1, §2

| Compound | IC50 (KRas G12C) [nM] | IC50 (KRas WT) [nM] | IC50 (KRas G12S) [nM] |
| --- | --- | --- | --- |
| N#Cc1ccccc1OC(=O)[C@@H]1[C@@H]2CC[C@H]1CN(c1nc(OCC34CCCN3CCC4)nc3c(F)c(-c4cccc5cccc(F)c45)ncc13)C2 [Example 21, 2-cyanophenyl (1R,5S,8r)-3-(8-fluoro-7-(8-fluoronaphthalen-1-yl)-2-((tetrahydro-1H-pyrrolizin-7a(5H)-yl)methoxy)pyrido[4,3-d]pyrimidin-4-yl)-3-azabicyclo[3.2.1]octane-8-carboxylate] | 15900 | 52200 | > 100000 |
| N#Cc1cccc(OC(=O)[C@@H]2[C@@H]3CC[C@H]2CN(c2nc(OCC45CCCN4CCC5)nc4c(F)c(-c5cccc6cccc(F)c56)ncc24)C3)c1 [Example 22, 3-cyanophenyl (1R,5S,8r)-3-(8-fluoro-7-(8-fluoronaphthalen-1-yl)-2-((tetrahydro-1H-pyrrolizin-7a(5H)-yl)methoxy)pyrido[4,3-d]pyrimidin-4-yl)-3-azabicyclo[3.2.1]octane-8-carboxylate] | 95200 | 14100 | > 100000 |
| O=C(Oc1ccc(F)c(F)c1)[C@@H]1[C@@H]2CC[C@H]1CN(c1nc(OCC34CCCN3CCC4)nc3c(F)c(-c4cccc5cccc(F)c45)ncc13)C2 [Example 23, 3,4-difluorophenyl (1R,5S,8r)-3-(8-fluoro-7-(8-fluoronaphthalen-1-yl)-2-((tetrahydro-1H-pyrrolizin-7a(5H)-yl)methoxy)pyrido[4,3-d]pyrimidin-4-yl)-3-azabicyclo[3.2.1]octane-8-carboxylate] | 34800 | 11800 | 61600 |
| O=C(Oc1c(F)cccc1F)[C@@H]1[C@@H]2CC[C@H]1CN(c1nc(OCC34CCCN3CCC4)nc3c(F)c(-c4cccc5cccc(F)c45)ncc13)C2 [Example 24, 2,6-difluorophenyl (1R,5S,8r)-3-(8-fluoro-7-(8-fluoronaphthalen-1-yl)-2-((tetrahydro-1H-pyrrolizin-7a(5H)-yl)methoxy)pyrido[4,3-d]pyrimidin-4-yl)-3-azabicyclo[3.2.1]octane-8-carboxylate] | 30500 | 17700 | > 100000 |
| O=C(Oc1ccccc1F)[C@@H]1[C@@H]2CC[C@H]1CN(c1nc(OCC34CCCN3CCC4)nc3c(F)c(-c4cccc5cccc(F)c45)ncc13)C2 [Example 25, 2-fluorophenyl (1R,5S,8s)-3-(8-fluoro-7-(8-fluoronaphthalen-1-yl)-2-((tetrahydro-1H-pyrrolizin-7a(5H)-yl)methoxy)pyrido[4,3-d]pyrimidin-4-yl)-3-azabicyclo[3.2.1]octane-8-carboxylate] | 66900 | 10900 | > 100000 |
| O=C(Oc1ccccc1)[C@@H]1[C@@H]2CC[C@H]1CN(c1nc(OCC34CCCN3CCC4)nc3c(F)c(-c4cccc5cccc(F)c45)ncc13)C2 [Example 26, phenyl (1R,5S,8r)-3-(8-fluoro-7-(8-fluoronaphthalen-1-yl)-2-((tetrahydro-1H-pyrrolizin-7a(5H)-yl)methoxy)pyrido[4,3-d]pyrimidin-4-yl)-3-azabicyclo[3.2.1]octane-8-carboxylate] | 92800 | 10600 | 75600 |
| N#Cc1ccccc1OC(=O)C1CCN(c2nc(OCC34CCCN3CCC4)nc3c(F)c(-c4cccc5cccc(F)c45)ncc23)CC1 [Example 27, 2-cyanophenyl 1-(8-fluoro-7-(8-fluoronaphthalen-1-yl)-2-((tetrahydro-1H-pyrrolizin-7a(5H)-yl)methoxy)pyrido[4,3-d]pyrimidin-4-yl)piperidine-4-carboxylate] | 452 | 89200 | > 100000 |
| N#Cc1cccc(OC(=O)C2CCN(c3nc(OCC45CCCN4CCC5)nc4c(F)c(-c5cccc6cccc(F)c56)ncc34)CC2)c1 [Example 28, 3-cyanophenyl 1-(8-fluoro-7-(8-fluoronaphthalen-1-yl)-2-((tetrahydro-1H-pyrrolizin-7a(5H)-yl)methoxy)pyrido[4,3-d]pyrimidin-4-yl)piperidine-4-carboxylate] | 724 | > 100000 | 74700 |
| N#Cc1ccc(OC(=O)C2CCN(c3nc(OCC45CCCN4CCC5)nc4c(F)c(-c5cccc6cccc(F)c56)ncc34)CC2)cc1 [Example 29, 4-cyanophenyl 1-(8-fluoro-7-(8-fluoronaphthalen-1-yl)-2-((tetrahydro-1H-pyrrolizin-7a(5H)-yl)methoxy)pyrido[4,3-d]pyrimidin-4-yl)piperidine-4-carboxylate] | 201 | 90500 | > 100000 |
| O=C(Oc1c(F)cccc1F)C1CCN(c2nc(OCC34CCCN3CCC4)nc3c(F)c(-c4cccc5cccc(F)c45)ncc23)CC1 [Example 30, 2,6-difluorophenyl 1-(8-fluoro-7-(8-fluoronaphthalen-1-yl)-2-((tetrahydro-1H-pyrrolizin-7a(5H)-yl)methoxy)pyrido[4,3-d]pyrimidin-4-yl)piperidine-4-carboxylate] | 194 | > 100000 | 32800 |

Results, then the compound that gave them:

| IC50 (KRas G12C) [nM] | IC50 (KRas WT) [nM] | IC50 (KRas G12S) [nM] | Compound |
| --- | --- | --- | --- |
| > 100000 | 39400 | > 100000 | O=C(OCC(F)(F)F)C1CCN(c2nc(OCC34CCCN3CCC4)nc3c(F)c(-c4cccc5cccc(F)c45)ncc23)CC1 [Example 31, 2,2,2-trifluoroethyl 1-(8-fluoro-7-(8-fluoronaphthalen-1-yl)-2-((tetrahydro-1H-pyrrolizin-7a(5H)-yl)methoxy)pyrido[4,3-d]pyrimidin-4-yl)piperidine-4-carboxylate] |
| 128 | > 100000 | 43300 | O=C(Oc1cccnc1)C1CCN(c2nc(OCC34CCCN3CCC4)nc3c(F)c(-c4cccc5cccc(F)c45)ncc23)CC1 [Example 32, pyridin-3-yl 1-(8-fluoro-7-(8-fluoronaphthalen-1-yl)-2-((tetrahydro-1H-pyrrolizin-7a(5H)-yl)methoxy)pyrido[4,3-d]pyrimidin-4-yl)piperidine-4-carboxylate] |
| 10700 | > 100000 | > 100000 | O=C(Oc1cc(F)cc(F)c1)C1CCN(c2nc(OCC34CCCN3CCC4)nc3c(F)c(-c4cccc5cccc(F)c45)ncc23)CC1 [Example 33, 3,5-difluorophenyl 1-(8-fluoro-7-(8-fluoronaphthalen-1-yl)-2-((tetrahydro-1H-pyrrolizin-7a(5H)-yl)methoxy)pyrido[4,3-d]pyrimidin-4-yl)piperidine-4-carboxylate] |
| 7890 | > 100000 | > 100000 | O=C(Oc1cccc(F)c1F)C1CCN(c2nc(OCC34CCCN3CCC4)nc3c(F)c(-c4cccc5cccc(F)c45)ncc23)CC1 [Example 34, 2,3-difluorophenyl 1-(8-fluoro-7-(8-fluoronaphthalen-1-yl)-2-((tetrahydro-1H-pyrrolizin-7a(5H)-yl)methoxy)pyrido[4,3-d]pyrimidin-4-yl)piperidine-4-carboxylate] |
| 321 | 92600 | 47500 | O=C(Oc1ccccc1F)C1CCN(c2nc(OCC34CCCN3CCC4)nc3c(F)c(-c4cccc5cccc(F)c45)ncc23)CC1 [Example 35, 2-fluorophenyl 1-(8-fluoro-7-(8-fluoronaphthalen-1-yl)-2-((tetrahydro-1H-pyrrolizin-7a(5H)-yl)methoxy)pyrido[4,3-d]pyrimidin-4-yl)piperidine-4-carboxylate] |
